Data reported in US20250042912A1, “NOVEL NON-FLUORINATED QUINOLONE COMPOUND AND USE THEREOF” (priority 2021, published 2025).
≈ marks a conversion by molar mass, not a printed value.

Legend:
[1] = system: Staphylococcus epidermidis ATCC 35983; experiment: Minimum inhibitory concentration (MIC) assay, Staphylococcus epidermidis ATCC 35983; assay type: cell-based; conditions: ATCC35983, aerobic culture 35+/-2°C, 16 to 20 hours, read with naked eyes
Experimental: (§1) On the day of the experiment, the compound in the flask was dissolved in 100% DMSO until the concentration of mother liquor was 0.4 mg/mL. If the mother liquor was not used on the same day, it was stored at −80° C. for future use.
(§2) The compound mother liquor and standard antibiotics were subjected to 2-fold gradient dilution with corresponding solvents on a 96-microwell plate (V-bottom) to obtain 100× working solutions (Well 1 to Well 7) in sequence. Among them, the concentrations of the compound were 400 μg/mL, 200 μg/mL, 100 μg/mL, 50 μg/mL, 25 μg/mL, 12.5 μg/mL, 6.25 μg/mL, and 3.125 μg/mL. 100% DMSO was used as growth control (Well 8). As such, the compound motherplate was obtained.
(§3) One day before the experiment, aerobic bacteria (Staphylococcus epidermidis) stored in a cryogenic tube at −80° C. were scribed on an MHA (Cation-adjusted Mueller-Hinton agar) plate. The aerobic bacteria were placed in a 35+/−2° C. incubator for 18-24 hours of aerobic cultivation.
(§4) On the day of the experiment, the plate was taken out, clones were picked from the plate and suspended in physiological saline. Then, the turbidity of the bacterial suspension (containing 1.0-2.0×10^8 CFU/mL) was adjusted to OD600=0.2 by a turbidity meter. Then, the adjusted bacterial suspension was diluted to an appropriate concentration with the assay culture medium: about 5×10^5 CFU/mL for aerobic bacteria, and about 1×10^6 CFU/mL for anaerobic bacteria. As such, the inoculating solution was obtained.
(§5) 2 μl of 2-fold series dilution of 100× high-concentration working solution was transferred from a compound mother plate (prepared in step 1) to a round-bottom 96-well plate, and then 198 μL of bacterial inoculating solution (prepared in step 2) was added to each well to obtain an MIC assay plate. Therefore, the final assay concentrations of the compound were 4 μg/mL, 2 μg/mL, 1 μg/mL, 0.5 μg/mL, 0.25 μg/mL, 0.125 μg/mL, 0.06 μg/mL and 0.03 μg/mL. The total volume of each well on the assay plate was 200 μL: containing 1% DMSO, about 5×10^5 CFU/mL of aerobic bacteria and about 1×10^6 CFU/mL of anaerobic bacteria.
(§6) All assay plates for aerobic bacteria were aerobically cultured at 35+/−2° C. for 16 to 20 hours, and all assay plates for anaerobic bacteria were anaerobically cultured in an anaerobic incubator at 35+/−2° C. for 48 hours.

[2] = system: CXCL1/KC; experiment: Acne model in mice: CXCL1 level in left ear tissue; assay type: in vivo, Balb/C mice
Experimental: Experimental strain: Propionibacterium acnes ATCC 6919 (Beijing Biobw Biotechnology Co., Ltd.) Experimental animals: Balb/C mice (Zhejiang Vital River Laboratory Animal Technology Co., Ltd.) Balb/C mice were grouped and numbered, and adaptively fed for one week. On the day of modeling, Propionibacterium acnes was taken, and OD600 was measured using a microplate reader. BH1 culture medium was diluted to OD600=1 (about 5×10^8 CFU/mL), centrifuged to discard supernatant, and the remaining culture was diluted to 1×10^8 CFU/mL with PBS. Once the molding began, the mice were anesthetized with a small animal anesthesia machine, the air flow and isoflurane content of the anesthesia machine were adjusted, and the mice were placed in an anesthesia induction chamber for anesthesia induction. […] Mouse BCA protein detection: after Propionibacterium acnes was injected for 48 hours, the BCA protein detection was detected by using the BCA protein concentration assay kit. The left ear of mouse was homogenized with 1 mL of PBS and the dilution factor equivalent to a mass volume ratio of 1:9 was calculated, then centrifuged at 1500 g for 10 minutes. […] […] was measured with a microplate reader, the standard curves were plotted, and the BCA concentrations were calculated. […]

[3] = system: Staphylococcus epidermidis ATCC 35984; experiment: Minimum inhibitory concentration (MIC) assay, Staphylococcus epidermidis ATCC 35984; assay type: cell-based; conditions: ATCC35984, aerobic culture 35+/-2°C, 16 to 20 hours, read with naked eyes
Experimental: as §1, §2, §3, §4, §5, §6

MIC [1]: 0.06 µg/mL (≈ 0.153 µM)
MIC [3]: 0.06 µg/mL (≈ 0.153 µM)
Compound: CN(C)c1cc2c(cn1)-c1ccc3c(=O)c(C(=O)O)cn(C4CC4)c3c1COC2 [Compound 6]
CXCL1 Mean ± SD ([2]; Balb/C mice, left ear homogenate, 48 hours after injection of Propionibacterium acnes, 15 μL applied at 4, 20, 28, 44 hours, drugs as hydrochloride): 191.5 ± 32.71 pg/mg
CXCL1 content in the left ear tissues of mice after treatment ([2]; compared with acne model group, p<0.001, in words): significantly reduced
